Laboratory results from patent US7317001B2, “Use of ramoplanin to treat diseases associated with the use of antibiotics” (priority 2002, dated 2008).

Assays:
C. difficile strain 4013 [1] = assay: Hamster CDAD induced by oral C. difficile challenge plus clindamycin; type: in vivo, Syrian hamsters; details: for animals surviving the study: all doses
Description: In a second study, animals were challenged orally with a bacterial suspension of C. difficile and then administered a single s.c. injection of 100 mg/kg clindamycin. Oral treatment with ramoplanin or vancomycin at 25-50-100 mg/kg or metronidazole at 100-200-400 mg/kg started 24 hours after clindamycin administration and lasted for five days. Hamsters were weighed and observed every 24 hours for evidence of diarrhea or moribund conditions, and the cecal contents were analyzed for C. difficile toxin A (ELISA).

C. difficile [2] = assay: Hamster model of clindamycin-induced C. difficile-associated colitis; type: in vivo, Syrian hamsters; details: oral 50 mg/kg/day for 5 days; for survival rate: from 24 hours after clindamycin 100 mg/kg s.c., monitored 20 days
Description: To evaluate the in vivo efficacy of ramoplanin in the treatment of C. difficile-associated colitis, ramoplanin was tested in a hamster model of clindamycin (CL)-induced colitis in comparison with both vancomycin and metronidazole. Animals were treated with a single subcutaneous (s.c.) injection of 100 mg/kg clindamycin, and after 24 hours received oral ramoplanin or vancomycin at 50 mg/kg/day for 5 days. Animals were observed daily for the presence or absence of diarrhea. Necropsies were performed on some animals that died during the experiment, and cecal contents were assayed for C. difficile toxin A. Hamsters were monitored for 20 days, and the cumulative mortality during this period was recorded (FIG. 1). […] C. difficile toxin A was always detected in these animals. […] All hamsters that died had gross pathologic evidence of enterocolitis and cecal contents were positive for Toxin A.

C. difficile strain 4013 [3] = assay: Hamster CDAD, different durations of treatment; type: in vivo, Syrian hamsters; details: ramoplanin 50 mg/kg oral daily for 3 days versus vancomycin 50 mg/kg for 5 days
Description: Hamsters were inoculated with C. difficile on day 0 and then administered 100 mg/kg clindamycin s.c. on day 1. Hamsters received daily oral doses of 50 mg/kg ramoplanin or vancomycin for 3 or 5 days starting on day 2.

C. difficile [4] = assay: Recovery of C. difficile spores or vegetative cells from clindamycin-treated animals; type: in vivo, hamster; details: after single dose of clindamycin and treatment
Description: In another study, animals were administered a single dose of clindamycin and then treated with either vancomycin or ramoplanin.

[5] = Single oral dose study in healthy male volunteers: absorption and fecal recovery; type: in vivo, human
Description: The absorption, tolerability, and recovery of ramoplanin following single dose oral administration were investigated in male volunteers. Ramoplanin was administered as an aqueous solution at a dose of 100, 200, 500, or 1000 mg to fasting subjects. Serum samples were obtained prior to drug administration of ramoplanin and 0.5, 1, 2, 3, 6, 9, 12, 24, 48, 72, and 96 hours after treatment. Urine samples were collected prior to administration of ramoplanin and over the periods 0-3,3-6, 6-12, 12-24, 24-48, 48-72, and 72-96 hours after dosing. Fecal samples were collected prior to dosing and over the periods 0-16 (Day 1), 16-40 (Day 2), 40-64 (Day 3), 64-88 (Day 4), and 88-96 (Day 5) hours after dosing. A microbiological assay employing Bacillis subtilis ATCC 6633 as the test organism was used to determine ramoplanin concentrations in serum, urine, and feces. The limits of quantitation for this assay were 0.02 μg/mL in serum, 0.012 μg/mL in urine, and 3 μg/g in feces. Tolerability was assessed on the basis of clinical signs and symptoms and the results of blood and urine laboratory tests.

[6] = Multiple oral dose study in healthy male volunteers: absorption and fecal concentrations; type: in vivo, human
Description: Healthy male volunteers were administered 200, 400, or 800 mg ramoplanin twice-a-day, for ten consecutive days. The predetermined dose was reconstituted in 5 mL water per vial, mixed with 50 mL of sweetened, aromatized solution, and immediately administered orally to the subjects.
No absorption from the human gastrointestinal tract was observed.

[7] = system: Gram-positive bacteria (staphylococci, streptococci, enterococci); assay: Multiple dose study, antibacterial activity on stool microflora: Gram-positive bacteria; type: in vivo, human
Description: (§1) The antibacterial activity of ramoplanin on the stool microflora was assessed in a subset of the subjects. Microbial concentrations (i.e., the number of organisms per gram of fecal matter) were determined at the following time points: Day −4 (pre-treatment), Days 4 and 10 (treatment), and Days 7 and 24 (follow-up). Tolerability and absorption were also investigated.

Clostridium spp. = assay: Multiple dose study, antibacterial activity on stool microflora: Clostridium spp.; type: in vivo, human
Description: as §1

[8] = system: Gram-negative bacteria (enteric bacteria and Bacteroides spp.) or yeast; assay: Multiple dose study, antibacterial activity on stool microflora: Gram-negative bacteria and yeast; type: in vivo, human
Description: as §1

[9] = In vitro interaction of ramoplanin with human intestinal contents
Excerpt: The in vitro interaction of ramoplanin with human intestinal contents was studied. […] The binding and the subsequent release of ramoplanin from feces would likely result in long-lasting concentrations in the intestinal tract.

VRE = assay: Multiple dose study in asymptomatic carriers of intestinal VRE; type: in vivo, human; details: for patients remaining VRE free: Day 14 (seven days after cessation)
Description: Patients identified as asymptomatic carriers of VRE were administered placebo or one of two dosages (100 mg, 400 mg) of ramoplanin BID (twice daily) for seven days. Patients were assessed by rectal swab on Days 7, 14, and 21 to determine the presence or absence of VRE. On Days 45 and 90, stool samples were analyzed for long-term effects of ramoplanin on the recurrence of, or reinfection with, VRE. All VRE isolates were tested for susceptibility to ramoplanin.

Compound: Cc1ncc([N+](=O)[O-])n1CCO [metronidazole]
- animals surviving the study (C. difficile strain 4013 [1]; oral for five days): No animals treated with vancomycin or metronidazole survived the study
- prolonged survival (C. difficile strain 4013 [1]; oral for five days, ramoplanin or vancomycin 25-50-100 mg/kg, metronidazole 100-200-400 mg/kg): 9 days

Compound: ramoplanin
- prolonging survival and protecting animals from death (C. difficile [2]): highly effective
- survival rate (C. difficile [2]): 80%
- survival at the end of observation period (C. difficile strain 4013 [1]; 100 mg/kg oral for five days): 20%
- time of death compared to vancomycin-treated animals (C. difficile strain 4013 [1]; oral for five days): delayed compared to that of vancomycin-treated animals
- efficacy by duration of treatment (C. difficile strain 4013 [3]): more effective than vancomycin administration for 5 days
- recovery of C. difficile spores or vegetative cells (C. difficile [4]): No C. difficile spores or vegetative cells were recovered
- mean cumulative recovery in feces, of the administered dose ([5]; 100 mg single oral dose): 67.7%
- mean maximum concentration in feces ([5]; 100 mg single oral dose): 214 µg/g
- range of cumulative recovery in feces ([5]; 100 mg single oral dose): 55.7-84%
- range of maximum concentrations in feces ([5]; 100 mg single oral dose): 148 to 278 µg/g
- mean cumulative recovery in feces, of the administered dose ([5]; 200 mg single oral dose): 48.5%
- mean maximum concentration in feces ([5]; 200 mg single oral dose): 287 µg/g
- range of cumulative recovery in feces ([5]; 200 mg single oral dose): 39.3-56.5%
- range of maximum concentrations in feces ([5]; 200 mg single oral dose): 164 to 454 µg/g
- mean cumulative recovery in feces, of the administered dose ([5]; 500 mg single oral dose): 52.8%
- mean maximum concentration in feces ([5]; 500 mg single oral dose): 1655 µg/g
- range of cumulative recovery in feces ([5]; 500 mg single oral dose): 41.3-79.6%
- range of maximum concentrations in feces ([5]; 500 mg single oral dose): 737 to 3316 µg/g
- mean cumulative recovery in feces, of the administered dose ([5]; 1000 mg single oral dose): 46.4%
- mean maximum concentration in feces ([5]; 1000 mg single oral dose): 1835 µg/g
- range of cumulative recovery in feces ([5]; 1000 mg single oral dose): 39.9-58.4%
- range of maximum concentrations in feces ([5]; 1000 mg single oral dose): 1336 to 3154 µg/g
- subjects with ramoplanin still detectable in feces ([5]; fourth day of study, single oral dose): 17 of 24
- time of maximum concentration and maximum percentage recovery in feces ([5]; single oral dose, not dose dependent): Day 2
- detection in serum/plasma or urine ([5]; single oral doses up to 1000 mg and multiple oral doses 200, 400 or 800 mg BID for 10 days, bioassay and HPLC): not detected
- absorption from the human gastrointestinal tract ([6]; 200, 400 or 800 mg twice-a-day for ten days): No absorption
- urine levels ([6]; Day 1 and 5 and pooled urine up to 72-96 after the last dose): No levels were found in urine
- average fecal concentration ([6]; Day 3, 200 mg twice-a-day): 827 µg/g
- average fecal concentration ([6]; Day 3, 400 mg twice-a-day): 1742 µg/g
- average fecal concentration ([6]; Day 3, 800 mg twice-a-day): 1901 µg/g
- average fecal concentration ([6]; Day 10, 200 mg twice-a-day): 949 µg/g
- average fecal concentration ([6]; Day 10, 400 mg twice-a-day): 1417 µg/g
- average fecal concentration ([6]; Day 10, 800 mg twice-a-day): 2647 µg/g
- serum levels ([6]; Days 1, 5 and 10, hour 0.5, 1, 2, 3, 6, 9 and 12 after the morning dose): no serum levels of ramoplanin were detected
- fecal concentrations post-treatment ([6]; after ten days of twice-a-day dosing): remained detectable in some subjects four days post-treatment
- cumulative recovery in feces, of the administered dose ([6]; up to Day 4 post-treatment): 25%
- Gram-positive colony counts in feces ([7]; all doses (200, 400 or 800 mg BID), during the 10-day regimen): undetectable levels
- concentrations of staphylococci, streptococci and enterococci in stool ([7]; by Day 10, all subjects): below the level of detection
- effect on Gram-positive bacteria of the stool ([7]; first measurement on Day 4): marked effect
- clostridial load in the two subjects carrying ramoplanin- and vancomycin-resistant Clostridium spp. (C. rectum and C. bejerinckii) (Clostridium spp.; multiple dose, ten days): no variation in the clostridial load
- subjects with Clostridium spp. concentration reduced below detectable levels (Clostridium spp.; multiple dose, ten days): 10 of 12
- ramoplanin- or vancomycin-resistant C. difficile strains in stool (Clostridium spp.; pre- or post-treatment): No ramoplanin- or vancomycin-resistant strain of C. difficile was detected
- activity against Gram-negative flora in feces ([8]; 200, 400 or 800 mg BID for 10 days): not effective
- effect on Gram-negative bacteria (enteric bacteria and Bacteroides spp.) or yeast of the stool ([8]; multiple dose, ten days): no effect
- binding to solid components of feces [9]: bind reversibly to solid components of feces
- microbiological activity in feces [9]: microbiologically active in feces
- suppression of intestinal VRE (primary efficacy variable) (VRE; 100 mg or 400 mg BID for seven days): effectively suppressed intestinal VRE
- patients with no detectable VRE (VRE; Day 7, 100 mg BID for seven days, 17 of 21 patients): 81.0%
- patients with no detectable VRE (VRE; Day 7, 400 mg BID for seven days, 18 of 20 patients): 90.0%
- patients remaining VRE free (VRE; 100 mg BID, 6 of 21 patients): 28.6%
- patients remaining VRE free (VRE; 400 mg BID, 7 of 17 patients): 41.2%
- number of VRE-free patients (VRE; Day 21): comparable among all treatment groups

Compound: CN[C@H](CC(C)C)C(=O)N[C@H]1C(=O)N[C@@H](CC(N)=O)C(=O)N[C@H]2C(=O)N[C@H]3C(=O)N[C@H](C(=O)N[C@H](C(=O)O)c4cc(O)cc(O)c4-c4cc3ccc4O)[C@H](O)c3ccc(c(Cl)c3)Oc3cc2cc(c3O[C@@H]2O[C@H](CO)[C@@H](O)[C@H](O)[C@H]2O[C@H]2C[C@](C)(N)[C@H](O)[C@H](C)O2)Oc2ccc(cc2Cl)[C@H]1O [vancomycin, reference compound]
- prolonging survival and protecting animals from death (C. difficile [2]): highly effective
- survival rate (C. difficile [2]): 20%
- animals surviving the study (C. difficile strain 4013 [1]; oral for five days): No animals treated with vancomycin or metronidazole survived the study
- recovery of C. difficile spores or vegetative cells (C. difficile [4]): C. difficile spores were recovered from some of the animals
